Results published in paper PMC8471380 (Molecules, 2021).

Legend:
human erythrocyte AChE [1] = biological target: T1, human erythrocyte AChE (Homo sapiens, UniProt P22303); assay: biochemical; conditions: mean ± SEM, n = 3; for inhibition at 20 µM: read-out: % of inhibition of AChE with 20 µM concentration of the compound, 20 µM compound
T1 construct: commercial human erythrocyte AChE; purchased Sigma; host or cells: human erythrocytes

[2] = biological target: T2, MK-801-binding (intrachannel) site of NMDA receptor (Rattus norvegicus, UniProt P35439); assay: Radioligand binding assay, [3H]MK-801 displacement
T2 construct: from tissue; host or cells: rat hippocampus membranes
Method: (§3) The effect of the test compounds on radioligand binding to NMDA receptors was evaluated by a modified method, as previously reported [83]. The following two radioligands were used: [^3H] […] A hippocampal membrane preparation for the radioligand binding assay was made as described previously [86, 87]. The obtained membrane pellet was resuspended in a working buffer (5 mM HEPES/4.5 mM Tris, pH 7.6 at 4 °C) in a ratio of 1:5 and stored in liquid nitrogen. The reaction mixture (the final volume was 0.5 mL) contained the working buffer (200 μL), a 50 nM radioligand solution (50 μL) and the membrane suspension (250 μL). The nonspecific binding was evaluated in the presence of 1 mM of the unlabeled ligand (50 μL).
(§4) For the binding assay, the reaction mixture was incubated at room temperature for 2 h. After the incubation, the samples were filtered through GF/B glass fiber filters (Whatman), washed with the working buffer, dried and transferred to scintillation vials. Then the scintillation fluid (5 mL), which is composed of diphenyloxazole (PPO) (4 g) and bis(5-phenyl-2-oxazolyl)benzene (POPOP) (0.2 g) in toluene (1 L) were added to the vials.
(§5) The effect of the test compounds on the binding of [^3H] […] The values of Ki were calculated according to a previously described method [88].

[3] = biological target: T3, ifenprodil-binding site of NMDA receptor (NR2B subunit) (Rattus norvegicus, UniProt P35439+Q00960); assay: Radioligand binding assay, [3H]ifenprodil displacement
T3 construct: from tissue; host or cells: rat hippocampus membranes
Method: as §3, §4, §5

equine serum BChE [4] = biological target: T4, equine serum BChE (Equus caballus, UniProt P81908); assay: biochemical; conditions: 5 min incubation; mean ± SEM, n = 3
T4 construct: equine serum BChE; purchased Sigma; host or cells: equine serum
Method: (§6) Reagents blanks consisted of reaction mixtures without substrates. […] Final enzyme and substrate concentrations were 0.02 unit/mL and 1 mM, respectively. Assays were carried out with a blank containing all constituents except porcine CES to assess non-enzymatic hydrolysis. The measurements were performed on a FLUOstar OPTIMA multifunctional microplate reader (BMG LABTECH, Ortenberg, Germany). The compounds were dissolved in DMSO. The incubation mixture contained 2% (v/v) of the solvent. […] The sample of the appropriate enzyme was incubated with the test compound for 5 min, and then the residual enzymatic activity was determined. Each experiment was performed in triplicate. […] Each experiment was performed in triplicate. The IC50 values were calculated with Origin 6.1 software.

equine serum BChE [5] = biological target: T4, equine serum BChE; assay: Kinetic study of BChE inhibition (Lineweaver-Burk); type: biochemical
Method: (§1) Kinetic studies were performed using commercial human erythrocyte AChE, equine serum BChE and porcine liver CES (Sigma, USA). The AChE and BChE activity was evaluated by Ellman’s method (λ = 412 nm) using 1 mM acetylthiocholine and 1 mM butyrylthiocholine (Sigma, St. Louis, MO, USA), respectively, as the substrate in 100 mM phosphate buffer, pH 7.5, 0.33 mM DTNB, 0.02 unit/mL of AChE or BChE at 25 °C as described in detail in [71]. Reagents blanks consisted of reaction mixtures without substrates. The CES activity was measured spectrophotometrically based on the release of 4-nitrophenol (λ = 405 nm) in the presence of 1 mM 4-nitrophenyl acetate as the substrate in 100 mM phosphate buffer, pH 8.0, at 25 °C as described in [71]. Final enzyme and substrate concentrations were 0.02 unit/mL and 1 mM, respectively. Assays were carried out with a blank containing all constituents except porcine CES to assess non-enzymatic hydrolysis. The measurements were performed on a FLUOstar OPTIMA multifunctional microplate reader (BMG LABTECH, Ortenberg, Germany). The compounds were dissolved in DMSO. The incubation mixture contained 2% (v/v) of the solvent. […] The sample of the appropriate enzyme was incubated with the test compound for 5 min, and then the residual enzymatic activity was determined. Each experiment was performed in triplicate. […]. […] Each experiment was performed in triplicate. The IC50 values were calculated with Origin 6.1 software.
(§2) The mechanisms of AChE and BChE inhibition were assessed by a thorough analysis of enzyme kinetics. The residual activity was determined after a 5-min incubation at 25 °C (for temperature equilibration) with three increasing concentrations of the inhibitor and six decreasing substrate concentrations.

[6] = test system: tubulin and microtubule-associated proteins (Tb+MAP); assay: GTP-dependent Tb+MAP polymerization; type: biochemical, mouse; conditions: 100 µM compound; 0.1 mM GTP, 37 °C
Source text: A crude fraction of tubulin and microtubule-associated proteins (Tb+MAP) was isolated from mouse brain tissue by a polymerization–depolymerization method. The procedure of mouse euthanasia using cervical dislocation for Tb+MAP preparation is in compliance with the Guidelines for Animal Experiments, which were approved by the local bioethics committee of the IPAC RAS. The freshly dissected brain was immediately placed on ice, cleared of meninges and surface blood vessels, and washed with cold buffer A (50 mM Tris-HCl, pH 6.9 at 4 °C, 2 mM EGTA). The extracted brain tissue was homogenized under ice cooling in the same buffer using a Potter S homogenizer (Sartorius). The resulting homogenate was centrifuged at 10,000× g for 30 min on an Avanti 25 centrifuge (Beckman) using a JA-14 rotor for the precipitation of non-ruptured cells. The precipitate was discarded, and the supernatant was again centrifuged at 100,000× g for 60 min at 4 °C on an Optima MAX XP centrifuge (Beckman) using a MLA-50 rotor. The precipitate was again discarded. The protein concentration in the supernatant was determined by the Bradford assay using the Bio-Rad Protein Assay kit (Bio-Rad, Hercules, CA, USA) according to manufacturer’s instructions. The resulting supernatant was a cytosolic fraction enriched in microtubular proteins (Tb and MAP).
The Tb+MAP preparation was centrifuged at 5000× g for 10 min at 4 °C immediately before polymerization in order to remove denatured and aggregated protein molecules by precipitation. The Tb+MAP polymerization was performed at 37 °C in buffer A in the presence of 0.1 mM GTP after addition of 100 µM of test compound or the same volume of vehicle (DMSO). The protein concentration in the sample was 0.2 mg/mL. The polymerization kinetics was monitored on a Victor 3 or EnVision microplate reader (Perkin Elmer, USA) at 355 nm and the stabilized rate of polymerization after the first wave was measured (dA355/dt).

porcine liver CES = biological target: T5, porcine liver CES (Sus scrofa, UniProt Q29550); assay: CES inhibition, 4-nitrophenyl acetate hydrolysis; type: biochemical; conditions: read-out: % of inhibition of CES with 20 µM concentration of the compound
T5 sequence (Q29550 19-566): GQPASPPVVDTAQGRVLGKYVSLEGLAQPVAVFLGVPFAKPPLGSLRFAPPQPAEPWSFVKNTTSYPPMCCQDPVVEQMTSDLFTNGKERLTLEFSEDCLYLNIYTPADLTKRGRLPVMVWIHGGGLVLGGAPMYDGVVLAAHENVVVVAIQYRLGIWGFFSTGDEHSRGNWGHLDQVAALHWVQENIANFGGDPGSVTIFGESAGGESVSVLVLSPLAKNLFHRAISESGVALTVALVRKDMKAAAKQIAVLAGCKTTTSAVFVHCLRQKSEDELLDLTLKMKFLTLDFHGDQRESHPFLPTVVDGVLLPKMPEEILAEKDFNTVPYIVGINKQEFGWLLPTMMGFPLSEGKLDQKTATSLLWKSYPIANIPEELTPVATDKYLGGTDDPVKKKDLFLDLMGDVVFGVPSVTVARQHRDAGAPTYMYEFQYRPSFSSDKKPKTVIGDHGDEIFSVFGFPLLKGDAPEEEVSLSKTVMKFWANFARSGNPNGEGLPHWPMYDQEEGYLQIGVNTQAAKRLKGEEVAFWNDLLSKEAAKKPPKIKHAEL
Method: as §6

PAS of EeAChE = biological target: T6, PAS of EeAChE (Electrophorus electricus, UniProt O42275); type: binding; conditions: 20 µM compound; 7 µM EeAChE, 8 µM propidium iodide; mean ± SEM, n = 3
T6 construct: AChE from Electrophorus electricus (EeAChE, type VI-S, lyophilized powder); purchased Sigma-Aldrich type VI-S; host or cells: Electrophorus electricus tissue
Method: The compounds were evaluated as potential inhibitors of proaggregation activity of AChE by measuring the displacement of propidium iodide from the PAS of the enzyme [53] using a fluorescence method [28]. AChE from Electrophorus electricus (EeAChE, type VI-S, lyophilized powder, Sigma-Aldrich, St. Louis, MO, USA) was used for consistency with our previous studies [8, 13, 63, 74]. The fluorescence intensity of propidium iodide bound to AChE increases several-fold. A decrease in the fluorescence intensity in the presence of the test compounds is indicative of their ability to bind to the AChE PAS and, correspondingly, to inhibit β-amyloid aggregation.
EeAChE (7 µM) was incubated with 20 µM of the test compound in 1 mM Tris-HCl buffer, pH 8.0, at 25 °C for 15 min. Then a solution of propidium iodide was added (final concentration 8 µM), the mixture was incubated for 15 min, and the fluorescence spectrum was recorded (excitation at 530 nm and emission at 600 nm). […] The blank contained propidium iodide at the same concentration in 1 mM Tris-HCl buffer, pH 8.0 at 25 °C. The measurements were performed in triplicate on a FLUOstar OPTIMA multifunctional microplate reader.
The degree of displacement of propidium iodide from the PAS of AChE (% displacement) was calculated by the equation:% displacement = 100 − (IFAChE + Propidium + inhibitor/IFAChE + Propidium) × 100, where IFAChE + Propidium is the fluorescence intensity of propidium iodide bound to EeAChE in the absence of the test compound (taken as 100%), and IFAChE + Propidium + inhibitor is the fluorescence intensity of propidium iodide bound to EeAChE in the presence of the test compound.

human erythrocyte AChE [7] = biological target: T1, human erythrocyte AChE; assay: Kinetic study of AChE inhibition (Lineweaver-Burk); type: biochemical
Method: as §1, §2

[8] = test system: isolated rat liver mitochondria; assay: Ca2+-induced mitochondrial swelling (MPT pore opening); type: biochemical; conditions: 30 µM compound; 12.5 µM Ca2+; 10 mM glutamate, 2 mM malate, 10 mM succinate; percentage relative to the reference compound
Method: Experiments were performed using outbred male rats weighing 200–220 g. The animals were housed under standard vivarium conditions in a normal day/night cycle and had ad libitum access to water and food. The procedure of rat euthanasia using carbon dioxide (CO2) inhalation for mitochondria preparation is in compliance with the Guidelines for Animal Experiments, which were approved by the local bioethics committee of the IPAC RAS.
Rat liver mitochondria were isolated by conventional differential centrifugation. Membrane potential of rat liver mitochondria was measured using the potential-sensitive fluorescent probe Safranine A on a Victor 3 multilabel plate reader (Perkin Elmer, Waltham, MA, USA). The fluorescence was recorded at λex = 485 nm and λem = 590 nm. Mitochondrial swelling was measured by spectrophotometry in 96-well clear bottom plates on a Victor 3 microplate reader (Perkin Elmer, Waltham, MA, USA) at 620 nm; CaCl2 was added to induce mitochondrial swelling (MPT opening).

[9] = Lineweaver-Burk double-reciprocal plots

T6 sequence (O42275 24-633): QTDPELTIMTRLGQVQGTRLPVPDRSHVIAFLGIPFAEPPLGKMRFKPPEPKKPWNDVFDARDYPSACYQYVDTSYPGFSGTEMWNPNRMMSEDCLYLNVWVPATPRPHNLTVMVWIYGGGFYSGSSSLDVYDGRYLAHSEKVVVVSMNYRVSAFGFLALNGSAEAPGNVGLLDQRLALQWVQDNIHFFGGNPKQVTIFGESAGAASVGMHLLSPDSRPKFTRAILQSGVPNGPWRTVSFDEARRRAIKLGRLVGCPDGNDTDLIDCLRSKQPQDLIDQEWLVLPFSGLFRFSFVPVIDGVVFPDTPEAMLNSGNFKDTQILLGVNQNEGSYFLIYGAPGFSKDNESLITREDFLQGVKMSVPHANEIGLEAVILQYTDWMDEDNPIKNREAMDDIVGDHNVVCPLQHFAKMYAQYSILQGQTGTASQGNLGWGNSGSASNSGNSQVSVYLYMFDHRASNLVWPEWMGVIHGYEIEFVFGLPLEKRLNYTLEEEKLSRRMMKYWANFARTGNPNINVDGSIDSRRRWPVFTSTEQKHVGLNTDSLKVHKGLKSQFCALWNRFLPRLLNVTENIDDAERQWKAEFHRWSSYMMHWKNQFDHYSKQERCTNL
T3 sequence (Q00960 27-1482, other chains not shown): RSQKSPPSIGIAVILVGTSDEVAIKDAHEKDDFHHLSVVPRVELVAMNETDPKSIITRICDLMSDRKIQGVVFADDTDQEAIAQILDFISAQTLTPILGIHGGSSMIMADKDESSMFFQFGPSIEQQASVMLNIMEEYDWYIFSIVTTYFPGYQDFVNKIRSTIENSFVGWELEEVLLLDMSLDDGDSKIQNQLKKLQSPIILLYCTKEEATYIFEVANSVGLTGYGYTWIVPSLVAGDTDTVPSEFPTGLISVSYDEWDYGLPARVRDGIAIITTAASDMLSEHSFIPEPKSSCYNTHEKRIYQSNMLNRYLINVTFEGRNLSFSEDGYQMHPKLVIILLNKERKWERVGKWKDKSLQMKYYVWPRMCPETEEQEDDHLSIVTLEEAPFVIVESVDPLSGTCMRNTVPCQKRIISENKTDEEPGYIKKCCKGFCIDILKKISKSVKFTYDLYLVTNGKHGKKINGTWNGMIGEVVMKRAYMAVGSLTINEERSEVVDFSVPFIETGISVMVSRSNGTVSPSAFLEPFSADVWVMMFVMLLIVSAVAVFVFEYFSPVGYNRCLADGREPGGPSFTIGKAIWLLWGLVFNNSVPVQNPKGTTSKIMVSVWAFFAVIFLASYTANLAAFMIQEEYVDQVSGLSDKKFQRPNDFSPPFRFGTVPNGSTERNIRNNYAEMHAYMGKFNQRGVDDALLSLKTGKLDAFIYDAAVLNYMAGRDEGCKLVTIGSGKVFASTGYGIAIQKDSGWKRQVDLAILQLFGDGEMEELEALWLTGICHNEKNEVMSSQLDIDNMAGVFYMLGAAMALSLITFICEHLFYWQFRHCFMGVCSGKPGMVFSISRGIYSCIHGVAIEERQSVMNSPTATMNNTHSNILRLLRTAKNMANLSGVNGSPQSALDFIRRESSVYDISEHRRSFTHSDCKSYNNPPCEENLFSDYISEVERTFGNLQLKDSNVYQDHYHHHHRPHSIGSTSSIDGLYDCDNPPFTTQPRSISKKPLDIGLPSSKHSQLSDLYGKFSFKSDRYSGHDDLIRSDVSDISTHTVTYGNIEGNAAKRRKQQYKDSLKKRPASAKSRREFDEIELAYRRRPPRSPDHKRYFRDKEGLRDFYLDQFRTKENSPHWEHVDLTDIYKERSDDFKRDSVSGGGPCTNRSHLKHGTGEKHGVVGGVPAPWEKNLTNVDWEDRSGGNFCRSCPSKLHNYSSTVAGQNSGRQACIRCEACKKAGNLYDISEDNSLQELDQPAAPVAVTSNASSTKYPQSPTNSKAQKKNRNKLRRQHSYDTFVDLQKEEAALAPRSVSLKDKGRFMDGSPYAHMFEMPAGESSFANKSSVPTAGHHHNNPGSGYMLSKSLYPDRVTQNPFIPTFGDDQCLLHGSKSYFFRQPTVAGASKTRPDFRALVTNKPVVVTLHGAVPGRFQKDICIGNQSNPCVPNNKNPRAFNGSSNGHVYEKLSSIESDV
T4 sequence (P81908 whole entry): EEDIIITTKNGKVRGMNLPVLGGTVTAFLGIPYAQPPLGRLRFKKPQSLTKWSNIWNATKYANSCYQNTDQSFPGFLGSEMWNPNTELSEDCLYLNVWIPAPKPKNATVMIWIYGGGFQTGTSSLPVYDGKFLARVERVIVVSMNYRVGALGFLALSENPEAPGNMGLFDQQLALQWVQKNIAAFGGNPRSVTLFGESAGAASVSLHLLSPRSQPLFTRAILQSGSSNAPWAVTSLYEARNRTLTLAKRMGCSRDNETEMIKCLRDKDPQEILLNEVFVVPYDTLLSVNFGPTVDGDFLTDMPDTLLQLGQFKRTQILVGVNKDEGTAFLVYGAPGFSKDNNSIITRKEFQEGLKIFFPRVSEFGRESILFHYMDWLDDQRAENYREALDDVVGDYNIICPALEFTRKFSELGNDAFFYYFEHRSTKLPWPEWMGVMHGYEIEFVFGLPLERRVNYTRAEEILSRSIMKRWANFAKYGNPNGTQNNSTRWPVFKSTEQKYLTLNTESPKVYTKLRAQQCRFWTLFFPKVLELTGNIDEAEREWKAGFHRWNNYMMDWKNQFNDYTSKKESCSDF
T1 sequence (P22303 32-617 isoform P22303-2 limits assumed): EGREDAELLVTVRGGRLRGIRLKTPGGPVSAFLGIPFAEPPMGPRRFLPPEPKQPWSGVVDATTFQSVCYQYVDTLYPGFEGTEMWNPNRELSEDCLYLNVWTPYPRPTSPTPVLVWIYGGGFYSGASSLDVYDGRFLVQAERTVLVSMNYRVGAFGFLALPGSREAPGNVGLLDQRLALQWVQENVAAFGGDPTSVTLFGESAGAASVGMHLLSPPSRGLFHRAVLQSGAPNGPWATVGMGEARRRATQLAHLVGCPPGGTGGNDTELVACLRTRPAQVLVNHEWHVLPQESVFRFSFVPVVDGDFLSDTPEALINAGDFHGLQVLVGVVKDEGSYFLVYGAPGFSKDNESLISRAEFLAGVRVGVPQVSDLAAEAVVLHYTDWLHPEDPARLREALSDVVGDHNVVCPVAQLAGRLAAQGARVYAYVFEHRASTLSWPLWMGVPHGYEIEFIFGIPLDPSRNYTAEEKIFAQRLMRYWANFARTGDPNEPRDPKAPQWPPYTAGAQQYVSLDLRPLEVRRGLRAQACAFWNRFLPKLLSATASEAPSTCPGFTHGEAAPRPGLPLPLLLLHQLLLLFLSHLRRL

| SMILES | IC50 (human erythrocyte AChE [1]; 5 min incubation) | Ki [2] | Ki [3] | IC50 (equine serum BChE [4]) | αKi (non-competitive component), BChE (equine serum BChE [5]; Lineweaver-Burk analysis) | Ki (equine serum BChE [5]; Lineweaver-Burk analysis, read-out: Ki (competitive component), BChE) | Type of BChE inhibition (equine serum BChE [5]; [9]) | Rate of Tb+MAP Polymerization (dA355/dt) [6] | inhibition at 20 µM (porcine liver CES) | % of Displacement of Propidium Iodide from the PAS of EeAChE (PAS of EeAChE) | αKi (non-competitive component), AChE (human erythrocyte AChE [7]; Lineweaver-Burk analysis) | Ki (human erythrocyte AChE [7]; Lineweaver-Burk analysis, read-out: Ki (competitive component), AChE) | Type of AChE inhibition (human erythrocyte AChE [7]; [9]) | Rate of Ca2+-Induced Mitochondrial Swelling (dA620/dt) [8] | inhibition at 20 µM (human erythrocyte AChE [1]) |
| --- | --- | --- | --- | --- | --- | --- | --- | --- | --- | --- | --- | --- | --- | --- | --- |
| CN1CCc2c(c3cc(F)ccc3n2CCNC23CC4CC(C)(CC(C)(C4)C2)C3)C1.Cl.Cl [Compound 4c, N-(2-(8-Fluoro-2-methyl-3,4-dihydro-1H-pyrido[4,3-b]indol-5(2H)-yl)ethyl)-3,5-dimethyladamantane-1-amine dihydrochloride] | 39.7 ± 3.2 µM | 4.7 ± 0.5 µM | 3.1 ± 0.3 µM | 0.729 ± 0.011 µM | 0.70 ± 0.01 µM | 0.23 ± 0.02 µM | mixed type of inhibition | 166 ± 11% | 6.9 ± 0.4% | 13.1 ± 1.0% | 45.5 ± 3.8 µM | 13.7 ± 0.02 µM | mixed type of inhibition | 31 ± 10% | – |
| CN1CCc2c(c3ccccc3n2CC(=O)NC23CC4CC(CC(C4)C2)C3)C1.Cl [Compound 8d, N-(Adamantan-1-yl)-2-(2-methyl-3,4-dihydro-1H-pyrido[4,3-b]indol-5(2H)-yl)acetamide hydrochloride] | – | 49.5 ± 4.5 µM | 79.1 ± 7.1 µM | 26.5 ± 0.4 µM | – | – | – | 128 ± 15% | 8.8 ± 1.2% | 1.4 ± 0.2% | – | – | – | 45 ± 17% | 5.4 ± 1% |
| Cc1ccc2c(c1)c1c(n2CC(=O)NC23CC4CC(CC(C4)C2)C3)CCN(C)C1.Cl [Compound 8e, N-(Adamantan-1-yl)-2-(2,8-dimethyl-3,4-dihydro-1H-pyrido[4,3-b]indol-5(2H)-yl)acetamide hydrochloride] | – | 72.7 ± 6.6 µM | 105 ± 10 µM | 43.2 ± 2.9 µM | – | – | – | 133 ± 28% | 9.9 ± 1.5% | 1.2 ± 0.1% | – | – | – | 49 ± 12% | 13.5 ± 0.9% |
